Read-outs that look alike come from different tables or passages of the source.
Key:
[1] = test system: ten selected renal cancer cell lines; assay: In vitro 2D assay, CellTiter-Blue Cell Viability Assay, whole panel; type: cell-based, human; settings: for IC50: Homo sapiens, geometric mean of ten cell lines, 96 h treatment
Description: The objective of this study was to investigate the in-vitro anticancer activity of ketorolac. Antitumor activity was assessed in ten selected renal cancer cell lines by using the CellTiter-Blue Cell Viability Assay. The human renal cancer cell lines RXF 1183L, RXF 1220L, RXF 1781L, RXF 393L, RXF 486L, RXF 786-0, RXF A-498, RXF ACHN, RXF Caki-1 and RXF SN12C were used. RXF 1183L, RXF 1220L, RXF 1781L, RXF 393L and RXF 486L were established at Oncotest from the corresponding human patient-derived xenograft. The cell lines 786-0, A-498, Caki-1 and SN12C were purchased from NCI (National Cancer Institute, Bethesda, Md., USA). ACHN was purchased from ECACC (European Collection of Cell Cultures, Salisbury, UK). Authenticity of cell lines was confirmed at the DSMZ by STR (short tandem repeat) analysis, a PCR based DNA-fingerprinting methodology.
Cell lines were routinely passaged once or twice weekly and maintained in culture for up to 20 passages. All cells were grown at 37° C. in a humidified atmosphere with 5% CO2 in RPMI 1640 medium (25 mM HEPES, with L-glutamine, #FG1385, Biochrom, Berlin, Germany) supplemented with 10% (v/v) fetal calf serum (Sigma, Taufkirchen, Germany) and 0.1 mg/mL gentamicin (Life Technologies, Karlsruhe, Germany).
Ketorolac was dissolved at a concentration of 60 mM in cell culture media. Starting with this stock solution, dilutions were made using cell culture media resulting in final test concentrations of 12000, 7800, 6000, 4200, 3000, 1800, 600, 420, 180, 60 μM. Precipitation was not observed.
The CellTiter-Blue Cell Viability Assay was used according to manufacturer's instructions. Briefly, cells were harvested from exponential phase cultures, counted and plated in 96-well flat-bottom microtiter plates at a cell density of 4,000-12,000 cells/well depending on the cell line's growth rate. […] Following an incubation period of up to four hours, fluorescence (FU) was measured by using the Enspire Multimode Plate Reader (excitation λ=531 nm, emission λ=615 nm). […]

786-O = assay: In vitro 3D assay, clonogenic assay (colony formation in semi-solid medium); type: cell-based; settings: Homo sapiens, 786-0, 3D colony formation, continuous exposure 8 to 13 days
Description: (§1) Ketorolac was characterized for its ability to inhibit anchorage independent growth and ex vivo colony formation of tumor cells in semi-solid medium. The compound was tested against 10 human tumor xenograft-derived cell suspensions or tumor cell lines of renal cancer.
(§2) Cell lines were routinely passaged one or twice weekly. […] The percentage of viable cells was determined in a Neubauer-hemocytometer using trypan blue exclusion.
(§3) Tumor xenografts (patient-derived, as well as cell line-derived xenografts) were passaged as subcutaneous xenografts in NMRI nu/nu mice. At a tumor volume of 400-1000 mm^3 tumor-bearing mice were sacrificed and tumors were collected under sterile conditions without delay according to the relevant Oncotest SOPs and the relevant animal welfare guidelines published by the FELASA and the GV-SOLAS. […] The percentage of viable cells was determined in a Neubauer-hemocytometer using trypan blue exclusion. Aliquots of the cells were frozen down, and stored in liquid nitrogen. On each day of an experiment, a frozen aliquot of tumor cells was thawed and used for preparation of assay plates.
(§4) The clonogenic assay was carried out in a 96 well plate format using ultra low attachment plates. […] Every plate included six untreated control wells and drug-treated groups in duplicate at 9 concentrations. […] At the time of maximum colony formation, counts were performed with an automatic image analysis system (Celllnsight NXT, Thermo Scientific). 48 hours prior to evaluation, vital colonies were stained with a sterile aqueous solution of 2-(4-iodophenyl)-3-(4-nitrophenyl)-5-phenyltetrazolium chloride (1 mg/ml, 100 μl/well).

A-498 cells = assay: as above; type: cell-based; settings: Homo sapiens, A498, A-498, 3D colony formation, continuous exposure 8 to 13 days
Description: as §1, §2, §3, §4

ACHN = assay: as above; type: cell-based; settings: Homo sapiens, 3D colony formation, continuous exposure 8 to 13 days
Description: as §1, §2, §3, §4

Caki-1 = assay: as above; type: cell-based; settings: Homo sapiens, Caki-1, 3D colony formation, continuous exposure 8 to 13 days
Description: as §1, §2, §3, §4

RXF 1183L = assay: as above; type: cell-based; settings: Homo sapiens, 3D colony formation, continuous exposure 8 to 13 days
Description: as §1, §2, §3, §4

RXF 1220L = assay: as above; type: cell-based; settings: Homo sapiens, 3D colony formation, continuous exposure 8 to 13 days
Description: as §1, §2, §3, §4

RXF 1781L = assay: as above; type: cell-based; settings: Homo sapiens, 3D colony formation, continuous exposure 8 to 13 days
Description: as §1, §2, §3, §4

RXF 393L = assay: as above; type: cell-based; settings: Homo sapiens, 3D colony formation, continuous exposure 8 to 13 days
Description: as §1, §2, §3, §4

RXF 486L = assay: as above; type: cell-based; settings: Homo sapiens, 3D colony formation, continuous exposure 8 to 13 days
Description: as §1, §2, §3, §4

SN12C = assay: as above; type: cell-based; settings: Homo sapiens, 3D colony formation, continuous exposure 8 to 13 days
Description: as §1, §2, §3, §4

[2] = test system: 10 human tumor xenograft-derived cell suspensions or tumor cell lines of renal cancer; assay: In vitro 3D assay, clonogenic assay, whole panel; type: cell-based; settings: geometric mean of 10 renal tumor models, 3D colony formation
Description: as §1, §2, §3, §4

Par-4 = assay: PAR-4 activity, Western blot of cell supernatant and lysate; type: cell-based; settings: normal mouse embryonic fibroblast cells, 25 μM, 18-21 h, cell supernatant, dose dependent
Description: Mouse embryonic fibroblast cells were harvested from exponential phase cultures. After a 24 h recovery period to allow the cells to resume exponential growth the cells were treated with 25 μM of ketorolac followed by further 18-21 h of incubation. Induction of Par-4 was checked in the cell supernatant and cell lysate by subjecting the samples to Western blot analysis with antibodies specific for Par-4. The samples were also subjected to SDS/PAGE and Coomassie blue staining to determine albumin levels in serum from the CM as another loading control.

**Q.** With `O=C(c1ccccc1)c1ccc2n1CCC2C(=O)O` (racemic) [Ketorolac, (±)-5-benzoyl-2,3-dihydro-1H-pyrrolizine-1-carboxylic acid] as the compound, how does the IC50 ([1]; read-out: Absolute IC50, geometric mean) read?
**A.** 3.24 mM

**Q.** And the IC50 ([1]; read-out: Relative IC50, geometric mean)?
**A.** 3.76 mM

**Q.** And the “Activity in all cell lines tested (concentration-effect curves)” value ([1]; both runs, all cell lines tested)?
**A.** Concentration-dependent activity

**Q.** And the IC50 (786-O; read-out: Absolute IC50)?
**A.** 3.84 mM

**Q.** And the IC50 (786-O; read-out: Relative IC50)?
**A.** 4.2 mM

**Q.** What about the IC50 (A-498 cells; read-out: Absolute IC50) of the same compound?
**A.** 0.279 mM

**Q.** And the IC50 (A-498 cells; read-out: Relative IC50)?
**A.** 0.279 mM

**Q.** And the IC50 (ACHN; read-out: Absolute IC50)?
**A.** 3.14 mM

**Q.** And the IC50 (ACHN; read-out: Relative IC50)?
**A.** 3.25 mM

**Q.** And the IC50 (Caki-1; read-out: Absolute IC50)?
**A.** 3.68 mM

**Q.** And the IC50 (Caki-1; read-out: Relative IC50)?
**A.** 3.75 mM

**Q.** And the IC50 (RXF 1183L; read-out: Absolute IC50)?
**A.** 1.55 mM

**Q.** And the IC50 (RXF 1183L; read-out: Relative IC50)?
**A.** 1.49 mM

**Q.** And the IC50 (RXF 1220L; read-out: Absolute IC50)?
**A.** 1.77 mM

**Q.** What about the IC50 (RXF 1220L; read-out: Relative IC50) of the same compound?
**A.** 1.75 mM

**Q.** And the IC50 (RXF 1781L; read-out: Absolute IC50)?
**A.** 1.9 mM

**Q.** What about the IC50 (RXF 1781L; read-out: Relative IC50) of the same compound?
**A.** 2.03 mM

**Q.** And the IC50 (RXF 393L; read-out: Absolute IC50)?
**A.** 2.83 mM

**Q.** And the IC50 (RXF 393L; read-out: Relative IC50)?
**A.** 2.73 mM

**Q.** And the IC50 (RXF 486L; read-out: Absolute IC50)?
**A.** 2.68 mM

**Q.** And the IC50 (RXF 486L; read-out: Relative IC50)?
**A.** 2.61 mM

**Q.** And the IC50 (SN12C; read-out: Absolute IC50)?
**A.** 2.59 mM

**Q.** And the IC50 (SN12C; read-out: Relative IC50)?
**A.** 2.64 mM

**Q.** And the IC50 ([2]; Homo sapiens, read-out: Absolute IC50, geometric mean)?
**A.** 2.04 mM

**Q.** What about the IC50 ([2]; Homo sapiens, read-out: Relative IC50, geometric mean (mean relative IC50)) of the same compound?
**A.** 2.04 mM

**Q.** And the IC50 ([2]; read-out: Relative IC50, geometric mean (mean relative IC50))?
**A.** 2.08 mM

**Q.** What about the “Induction of Par-4 secretion” value (Par-4) of the same compound?
**A.** robust Par-4 secretion

Reference: patent publication US10391080B2, “Ketorolac for the treatment of cancer” (Cipla Limited, priority 2016, dated 2019)
